The text below walks through data of patent publication US8772199B2, “Herbicidal compositions for tolerant or resistant maize crops” (Bayer Intellectual Property GmbH, priority 1998, dated 2014).

The subject of this data set is Mais LL (Liberty-Link-Mais, maize tolerant or resistant to glufosinate-ammonium). Briefly: Field trial, damage to transgenic maize (tolerance by crop plants). Format: in vivo. Conditions: for Mais LL: application 3-leaf stage. As for the experimental part:
Transgenic maize plants with a resistance to one or more herbicides (A) together with typical weed plants were grown in the open on 2×5 m plots under natural field conditions; alternatively, weed infestation occurred naturally when the maize plants were grown.
The damage to, and the development of, all aerial parts of the plants was recorded.
Abbreviations generally used in the tables: • g of a.s./ha=gram of active substance (100% active substance) per hectare • E^A=Total of the herbicidal effects of the individual applications • E^C Colby's expected value (cf. scoring in Table 1) • “Mais LL”=®Liberty-Link-Mais, maize which is tolerant or resistant to glufosinate-ammonium, […]

Molecules are shown by their SMILES. Structures can show the parent of a compound that is named as a salt.

`CP(=O)(O)CCC(N)C(=O)O` (stereo not shown) [(A1.2), glufosinate-monoammonium salt]: the “Mais LL” value (100 g of a.s./ha, Table 11, head names no quantity) is reported as 0; the “Mais LL” value (200 g of a.s./ha, Table 11, head names no quantity) was determined as 0; the “Mais LL” value (200 g of a.s./ha, Table 14, head names no quantity) is 0; the “Mais LL” value (300 g of a.s./ha, Table 11, head names no quantity) is 0; the “Mais LL” value (400 g of a.s./ha, Table 14, head names no quantity) stood at 8; the “Mais LL” value (600 g of a.s./ha, Table 11, head names no quantity) came to 0. Moreover, the “Damage to Mais LL in %” value reads like this: (100 g of a.s./ha, application 6-leaf stage) 0%; (200 g of a.s./ha, application 2-4-leaf stage) 3%; (200 g of a.s./ha, application 5-6-leaf stage) 2%; (200 g of a.s./ha, application 6-leaf stage) 0%; (300 g of a.s./ha, application 2-4-leaf stage) 2%; (300 g of a.s./ha, application 4-leaf stage) 0%. In addition, the “Damage to Mais LL in %” value by setting is: (400 g of a.s./ha, application 2-4-leaf stage) 5%; (400 g of a.s./ha, application 5-6-leaf stage) 4%; (400 g of a.s./ha, application 6-leaf stage) 0%; (600 g of a.s./ha, application 2-4-leaf stage) 3%; (600 g of a.s./ha, application 4-leaf stage) 0%; (600 g of a.s./ha, application 5-6-leaf stage) 3%. The “Damage to Mais LL in %” value (1000 g of a.s./ha, application 2-4-leaf stage) came out at 4%.
